Read-outs that look alike come from different tables or passages of the source.

Consider 51 compounds from patent US20040006061A1, “Alkoxybenzylamine” (priority 2001, published 2004).

For test [1], the system named is Staphylococcus hominis DSM 20328. The test is described as follows: Determination of the Minimum Inhibitory Concentration (MIC value) in microtitre plates, Staphylococcus hominis. The class given is cell-based. The conditions noted are these: for MIC: Staphylococcus hominis, DSM20328, 48 h, read-out: MIC [μg/ml] SH. The procedure:
(§1) Determination of the Minimum Inhibitory Concentration (MIC Value) in Microtitre Plates
Casein-soybean flour-peptone broth for preparation of pre-cultures of test bacteria and yeast.
Staphylococcus hominis DSM 20328 […]
(§2) The test substances are pre-dissolved in dimethyl sulfoxide (DMSO) and tested in a dilution series of 1:2.
(§3) The bacteria are cultured overnight in CASO broth and washed off using 10 ml of 0.85% sodium chloride solution (+0.1% Triton X-100).
(§4) All the test organisms are adjusted to an organism count of 1-5×10^6 CFU/ml using 0.85% sodium chloride solution.
(§5) The test substances are pre-pipetted into microtitre plates in amounts of 8 μl per well.
(§6) Pre-diluted test organism suspensions are diluted 1:100 in CASO broth.
(§7) The test batches are incubated for 48 hours at 37° C.
(§8) After incubation, the growth is determined on the basis of the turbidity of the test batches (optical density) at 620 nm in a microplate reader.
(§9) The minimum inhibitory concentration (MIC value) is the concentration of substance at which there is found (compared to the growth of the control) an appreciable inhibition of growth (≦20% growth) of the test organisms.
(§10) One microtitre plate is used for each test organism and substance concentration.
(§11) All the substances are tested in duplicate.

Test [2] deals with Escherichia coli NCTC 8196. As to the kind of experiment: Determination of the Minimum Inhibitory Concentration (MIC value) in microtitre plates, Escherichia coli. Type of test: cell-based. As to conditions: for MIC: Escherichia coli, NCTC8196, 48 h, read-out: MIC [μg/ml] EC. As to the method:
as §1
Casein-soybean flour-peptone broth for preparation of pre-cultures of test bacteria and yeast. […]
Escherichia coli NCTC 8196
as §2, §3, §4, §5, §6, §7, §8, §9, §10, §11

The mark [3] stands for this setting: Staphylococcus hominis DSM 20328, CASO broth, 48 hours at 37° C., MIC = ≦20% growth (optical density at 620 nm).
Where [4] appears, read: Escherichia coli NCTC 8196, CASO broth, 48 hours at 37° C., MIC = ≦20% growth (optical density at 620 nm).

`CCCCCCCCOc1ccc(CN(C)C)cc1OC` [Compound of formula (52)]: the MIC in test [1] (setting [3]) and in test [2] (setting [4]) was 120 µg/mL throughout.

For the compound `CCCCCCCCCCCCN(C)Cc1ccc(OCCCCCCCC)c(OC)c1` [Compound of formula (51)], the MIC in test [1] (setting [3]) and in test [2] (setting [4]) was over 120 µg/mL each time.

Turning to `CCCOc1ccc(CN2CCOCC2)cc1OC` [Compound of formula (56)], the MIC in test [1] (setting [3]) was 120 µg/mL; in test [2] (setting [4]), over 120 µg/mL.

With `CCCOc1ccc(CN2CCCCCC2)cc1OC` [Compound of formula (58)], the MIC in test [1] (setting [3]) is 120 µg/mL; in test [2] (setting [4]), over 120 µg/mL.

As for `CCCCCCCCCCCCOc1ccc(CN2CCN(C)CC2)cc1` [Compound of formula (76)], the results for the MIC in test [1] (setting [3]) and in test [2] (setting [4]) were 7.5 µg/mL and over 120 µg/mL, respectively.

For `CCCCCCCCCCCCOc1ccc(CN2CCCCC2)cc1` [Compound of formula (86)], the MIC in test [1] (setting [3]) was 7.5 µg/mL; in test [2] (setting [4]), over 120 µg/mL.

For `CCCCCCN(C)Cc1ccc(OCCC)c(OC)c1` [Compound of formula (64)], the MIC in test [1] (setting [3]) and in test [2] (setting [4]) was over 120 µg/mL in each case.

With `CCCOc1ccc(CN(C)CCc2ccccn2)cc1OC` [Compound of formula (55)], the MIC in test [1] (setting [3]) and in test [2] (setting [4]) was over 120 µg/mL throughout.

With `CCCCCCCCCCCCOc1ccc(CN2CCCC2)cc1` [Compound of formula (83)], the “MIC [μg/ml] SH” value in test [1] (Staphylococcus hominis DSM 20328, CASO broth, 48 hours at 37° C., MIC = ≦20% growth (optical density at 620 nm), listed as (83)) is over 120 µg/mL. In test [2] (setting [4]), the “MIC [μg/ml] EC” value was over 120 µg/mL.

On to `CCCCN(C)Cc1ccc(OCCC)c(OC)c1` [Compound of formula (57)], for which the MIC in test [1] (setting [3]) was over 120 µg/mL; in test [2] (setting [4]), 120 µg/mL.

As for `CCCCCCCCOc1ccc(CN(C)CCCC)cc1OC` [Compound of formula (41)], the MIC in test [1] (setting [3]) and in test [2] (setting [4]) was 15 µg/mL throughout.

In the case of `CCCCCCCCCCCCN(C)Cc1ccc(OCCCCCC)c(OC)c1` [Compound of formula (35)], the figures for the MIC in test [1] (setting [3]) and in test [2] (setting [4]) were 15 µg/mL and over 120 µg/mL, respectively.

As for `CCCCCCCCOc1ccc(CN(C)CCCCCC)cc1OC` [Compound of formula (48)], the MIC was 120 µg/mL in test [1] (setting [3]) and over 120 µg/mL in test [2] (setting [4]).

As for `CCCCCCCCCCCCOc1ccc(CN(C)Cc2ccccc2)cc1OC` [Compound of formula (15)], the MIC in test [1] (setting [3]) was 15 µg/mL; in test [2] (setting [4]) it was over 120 µg/mL.

For `CCCCCCOc1ccc(CN2CCCC2)cc1OCCCCCC` [Compound of formula (98)], the MIC in test [1] (setting [3]) worked out at 3.75 µg/mL; in test [2] (setting [4]), 7.5 µg/mL.

As to `CCCCCCCCCCCCOc1ccc(CN(C(C)C)C(C)C)cc1OC` [Compound of formula (11)], the MIC in test [1] (setting [3]) and in test [2] (setting [4]) was over 120 µg/mL throughout.

For `CCCCCCOc1ccc(CN2CCCCCC2)cc1OC` [Compound of formula (26)], the MIC in test [1] (setting [3]) and in test [2] (setting [4]) was over 120 µg/mL in each case.

In the case of `CCCCCCOc1ccc(CN2CCN(C)CC2)cc1OC` [Compound of formula (28)], the MIC in test [1] and in test [2] was over 120 µg/mL in each case.

As to `CCCCCCCCOc1ccc(CN(C)CCc2ccccn2)cc1OC` [Compound of formula (39)], the MIC is 120 µg/mL in test [1] (setting [3]) and over 120 µg/mL in test [2] (setting [4]).

On to `CCCCCCCCCCCCOc1ccc(CN(C(C)C)C(C)C)cc1` [Compound of formula (75)], for which the MIC in test [1] (setting [3]) and in test [2] (setting [4]) was over 120 µg/mL throughout.

Take `CCCCCCOc1ccc(CN(C)CCCC)cc1OCCCCCC` [Compound of formula (89)]: the MIC in test [1] (setting [3]) was 60 µg/mL; in test [2] (setting [4]), over 120 µg/mL.

For the compound `CCCCCCOc1ccc(CN(C)C)cc1OCCCCCC` [Compound of formula (100)], the MIC in test [1] (setting [3]) and in test [2] (setting [4]) was 7.5 µg/mL throughout.

Consider `CCCCCCCCCCCCOc1ccc(CN(C)C)cc1` [Compound of formula (84)], for which the MIC came to 7.5 µg/mL in test [1] (setting [3]) and 60 µg/mL in test [2] (setting [4]).

As to `CCCCCCOc1ccc(CN2CCOCC2)cc1OCCCCCC` [Compound of formula (88)], the MIC in test [1] (setting [3]) and in test [2] (setting [4]) was over 120 µg/mL throughout.

With `CCCCCCCCCCCCOc1ccc(CN2CCN(C(C)=O)CC2)cc1OC` [Compound of formula (14)], the MIC in test [1] (setting [3]) and in test [2] (setting [4]) was over 120 µg/mL throughout.

As for `CCCCCCOc1ccc(CN(CC)CC)cc1OCCCCCC` [Compound of formula (93)], the MIC in test [1] (setting [3]) amounted to 7.5 µg/mL; in test [2] (setting [4]), 120 µg/mL.

As to `CCCCCCCCCCCCOc1ccc(CN2CCOCC2)cc1` [Compound of formula (72)], the MIC in test [1] (setting [3]) and in test [2] (setting [4]) was over 120 µg/mL in each case.

As for `CCCCCCCCCCCCOc1ccc(CN2CCCC2)cc1OC` [Compound of formula (18)], the MIC in test [1] (setting [3]) was 3.75 µg/mL; in test [2] (setting [4]) it was 15 µg/mL.

Regarding `CCCCCCOc1ccc(CN(C(C)C)C(C)C)cc1OCCCCCC` [Compound of formula (91)], the MIC in test [1] (setting [3]) and in test [2] (setting [4]) was over 120 µg/mL each time.

In the case of `CCCCCCCCOc1ccc(CN2CCCCC2)cc1OC` [Compound of formula (54)], the MIC in test [1] (setting [3]) stood at 60 µg/mL; in test [2] (setting [4]), 30 µg/mL.

For the compound `CCCCCCOc1ccc(CN2CCNCC2)cc1OC` [Compound of formula (37)], the MIC in test [1] and in test [2] was over 120 µg/mL in each case.

Turning to `CCCOc1ccc(CN(C(C)C)C(C)C)cc1OC` [Compound of formula (59)], the MIC in test [1] (setting [3]) and in test [2] (setting [4]) was over 120 µg/mL in each case.

Regarding `CCCCCCCCCCCCOc1ccc(CN(C)CCCC)cc1` [Compound of formula (73)], the MIC was 120 µg/mL in test [1] (setting [3]) and over 120 µg/mL in test [2] (setting [4]).

Regarding `CCCCCCCCCCCCOc1ccc(CN2CCCCCC2)cc1OC` [Compound of formula (10)], the MIC was 3.75 µg/mL in test [1] (setting [3]) and over 120 µg/mL in test [2] (setting [4]).

Regarding `CCCOc1ccc(CN2CCCCC2)cc1OC` [Compound of formula (70)], the MIC in test [1] (setting [3]) and in test [2] (setting [4]) was over 120 µg/mL throughout.

On to `CCCCCCCCCCCCOc1ccc(CN(C)CCc2ccccn2)cc1OC` [Compound of formula (7)], for which the values for the MIC in test [1] (setting [3]) and in test [2] (setting [4]) were 60 µg/mL and over 120 µg/mL, respectively.

Take `CCCCCCCCOc1ccc(CN(C(C)C)C(C)C)cc1OC` [Compound of formula (43)]: the MIC in test [1] (setting [3]) and in test [2] (setting [4]) was over 120 µg/mL in each case.

With `CCCCCCCCCCCCOc1ccc(CN(C)CCCC)cc1OC` [Compound of formula (9)], the MIC in test [1] (setting [3]) is 15 µg/mL; in test [2] (setting [4]), over 120 µg/mL.

In the case of `CCCOc1ccc(CN2CCNCC2)cc1OC` [Compound of formula (69)], the MIC in test [1] and in test [2] was over 120 µg/mL in each case.

With `CCCCCCCCCCCCOc1ccc(CN2CCN(CC)CC2)cc1` [Compound of formula (81)], the MIC in test [1] (setting [3]) was 15 µg/mL; in test [2] (setting [4]), over 120 µg/mL.

`CCCOc1ccc(CN2CCN(C)CC2)cc1OC` [Compound of formula (60)]: the MIC in test [1] and in test [2] was over 120 µg/mL throughout.

As to `CCCOc1ccc(CN2CCN(CC)CC2)cc1OC` [Compound of formula (65)], the MIC in test [1] and in test [2] was over 120 µg/mL each time.

As for `CCCCCCOc1ccc(CN2CCN(CC)CC2)cc1OC` [Compound of formula (33)], the MIC in test [1] and in test [2] was over 120 µg/mL in each case.

Turning to `CCCCCCOc1ccc(CN2CCN(c3cccc(OC)c3)CC2)cc1OC` [Compound of formula (38)], the MIC in test [1] (setting [3]) and in test [2] (setting [4]) was over 120 µg/mL each time.

For the compound `CCCCCCCCOc1ccc(CN2CCN(C)CC2)cc1OC` [Compound of formula (44)], the MIC in test [1] (setting [3]) and in test [2] (setting [4]) was 120 µg/mL each time.

In the case of `CCCCCCCCOc1ccc(CN2CCN(CC)CC2)cc1OC` [Compound of formula (49)], the MIC in test [1] (setting [3]) came out at 60 µg/mL; in test [2] (setting [4]), 120 µg/mL.

In the case of `CCCCCCCCCCCCOc1ccc(CN2CCNCC2)cc1OC` [Compound of formula (21)], the MIC in test [1] (setting [3]) and in test [2] (setting [4]) was over 120 µg/mL each time.

For `CCCCCCCCCCCCOc1ccc(CN2CCN(C)CC2)cc1OC` [Compound of formula (12)], the MIC in test [1] (setting [3]) worked out at 3.75 µg/mL; in test [2] (setting [4]), 120 µg/mL.

As for `CCCOc1ccc(CN2CCN(C(C)=O)CC2)cc1OC` [Compound of formula (62)], the MIC in test [1] (setting [3]) and in test [2] (setting [4]) was over 120 µg/mL each time.

For `CCCCCCCCOc1ccc(CN2CCCC2)cc1OC` [Compound of formula (50)], the MIC in test [1] (setting [3]) and in test [2] (setting [4]) was 60 µg/mL in each case.

For `CCCCCCOc1ccc(CN(C)CCCC)cc1OC` [Compound of formula (25)], the MIC in test [1] (setting [3]) and in test [2] (setting [4]) was over 120 µg/mL each time.
